# Values quoted from earlier work as cited in patent US8735408B2, “Solid forms of 3-(4-(aminomethyl)-1-(5-methyl-7H-pyrrolo[2,3-d]pyrimidin-4-yl)piperidine-4-carboxamido)phenyl dimethylcarbamate” (Lexicon Pharmaceuticals, Inc., priority 2010, dated 2014).
# Settings: models of ophthalmic disease; see US-2009-0264450-A1
compound,measurement,value
"Cc1c[nH]c2ncnc(N3CCC(CN)(C(=O)Nc4cccc(OC(=O)N(C)C)c4)CC3)c12 [3-(4-(aminomethyl)-1-(5-methyl-7H-pyrrolo[2,3-d]pyrimidin-4-yl)piperidine-4-carboxamido)phenyl dimethylcarbamate]",effect on intraocular pressure,decrease intraocular pressure
